Our source for the IC50 values is US20240158394A1, “NEK7 INHIBITORS” (Halia Therapeutics, Inc., priority 2022, published 2024).

One experiment has as its system IL-1β release. Nature of the experiment: IL-1β Release Assay. It counts as cell-based. As to conditions: Homo sapiens; PMA-treated THP-1 cells, 250 ng/mL LPS then 20 μM nigericin; cleaved IL-1β in media. Here is the method:
Approximately 1.5 million THP-1 cells were plated in each well of a 6-well TC plate and incubated with 40 nM PMA in RPMI (10% FBS, 1% Penstrep) for 24 hours. The media was then removed, and cells were rested in RPMI (10% FBS, 1% Penstrep) for 24 hours after which time the media was removed and cells were pre-treated for 2 hours with various concentrations of compounds of interest (typically serial 3-fold dilution in RPMI+5% FBS, concentrations ranging from 1 μM to 0.5 nM) in RPMI (5% FBS). The media was again removed, and cells were incubated with 250 ng/mL LPS and compounds of interest (concentrations as above) in RMPI (5% FBS) for 2 hours. The media was removed for a last time and cells were incubated with 20 μM nigericin and compounds of interest (concentrations as above) in Opti-MEM for 30 minutes. Cell media was then collected and the amount of cleaved IL-1β was determined using a JESS instrument (Protein Simple) and standard protocols. Cleaved Il-1β antibody was obtained from Cell Signaling (catalogue #83186S) and was used at 1:20 dilution in antibody diluent 2. Protein Simple 1× anti-Rabbit HRP secondary antibody was used along with Protein Simple luminol and peroxide for chemiluminescent detection. Primary antibody incubation time was increased from 30 minutes to 60 minutes.

The target in experiment [1] is full-length recombinant human NEK7 (Homo sapiens (Human), UniProt Q8TDX7). Nature of the experiment: NEK7 Enzymatic Assay. Format: biochemical. As to conditions: casein substrate, [33P]-ATP, 2 hours at room temperature. The gist of the method: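 GST-tagged full-length human NEK7 (Sf9-expressed) with 1 mg/mL casein in HEPES pH 7.5/MgCl2 buffer, 1% DMSO; compounds 10 μM–0.5 nM preincubated 20 min at RT. Reaction started with [^33P]-ATP, 2 h at RT, P81 filter radioactivity read; IC50 from % activity remaining versus vehicle.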
Sequence of full-length recombinant human NEK7 (Q8TDX7 whole entry): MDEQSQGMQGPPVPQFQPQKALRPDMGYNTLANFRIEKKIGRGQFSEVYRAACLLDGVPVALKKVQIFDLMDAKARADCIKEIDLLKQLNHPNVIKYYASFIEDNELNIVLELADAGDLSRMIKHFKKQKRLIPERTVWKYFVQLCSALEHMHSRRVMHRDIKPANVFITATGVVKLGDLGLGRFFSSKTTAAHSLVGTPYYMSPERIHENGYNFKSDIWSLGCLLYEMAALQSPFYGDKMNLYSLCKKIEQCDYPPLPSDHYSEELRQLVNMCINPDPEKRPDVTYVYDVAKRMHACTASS

For the compound `CN1CCN(Cc2ccc(NC(=O)Nc3ccc(-c4cn(C5CC5)c5ncnc(N)c45)c4ccoc34)cc2C(F)(F)F)CC1` [Example I-66, 1-(4-(4-amino-7-cyclopropyl-7H-pyrrolo[2,3-d]pyrimidin-5-yl)benzofuran-7-yl)-3-(4-((4-methylpiperazin-1-yl)-methyl)-3-(trifluoromethyl)-phenyl)urea], the half-maximal inhibitory concentration (IC50) was less than 100 nM in the experiment on IL-1β release and 200 to 500 nM in experiment [1].

Consider `Nc1ncnc2c1c(-c1ccc(NC(=O)Nc3cc(C4(C(F)(F)F)CC4)on3)c3oncc13)cn2C1CC1` [Example I-68, 1-(4-(4-amino-7-cyclopropyl-7H-pyrrolo[2,3-d]pyrimidin-5-yl)benzo[d]isoxazol-7-yl)-3-(5-(1-(trifluoromethyl)cyclo-propyl)isoxazol-3-yl)urea], for which the IC50 was 100 to 250 nM with IL-1β release and less than 200 nM in experiment [1].

As for `CN1CCN(Cc2ccc(NC(=O)Nc3ccc(-c4cn(C5CC5)c5ncnc(N)c45)c4cnoc34)cc2C(F)(F)F)CC1` [Example I-69, 1-(4-(4-amino-7-cyclopropyl-7H-pyrrolo[2,3-d]pyrimidin-5-yl)benzo[d]isoxazol-7-yl)-3-(4-((4-methylpiperazin-1-yl)methyl)-3-(trifluorometh-yl)phenyl)urea], the figures for the 50% inhibitory concentration (IC50) (in the experiment on IL-1β release; in experiment [1]) were more than 1000 nM and less than 200 nM, respectively.

For the compound `CN1CCN(Cc2ccc(NC(=O)Nc3ccc(-c4cn(C5CC5)c5ncnc(N)c45)c4ncoc34)cc2C(F)(F)F)CC1` [Example I-72, 1-(4-(4-amino-7-cyclopropyl-7H-pyrrolo[2,3-d]pyrimidin-5-yl)benzo[d]oxazol-7-yl)-3-(4-((4-methylpiperazin-1-yl)-methyl)-3-(trifluoromethyl)-phenyl)urea], the values for the IC50 (with IL-1β release; in experiment [1]) were more than 1000 nM and 500 to 2000 nM, respectively.

In the case of `CC(C)(C)c1cc(NC(=O)Nc2ccc(-c3cn(C4CC4)c4ncnc(N)c34)c3nonc23)on1` [Example I-74, 1-(7-(4-amino-7-cyclopropyl-7H-pyrrolo[2,3-d]pyrimidin-5-yl)benzo[c][1,2,5]oxadiazol-4-yl)-3-(3-(tert-butyl)isoxazol-5-yl)urea], the values for the IC50 (in the experiment with IL-1β release; in experiment [1]) were less than 100 nM and less than 200 nM, respectively.

For the compound `Nc1ncnc2c1c(-c1ccc(NC(=O)Nc3cc(C4(C(F)(F)F)CC4)on3)c3nonc13)cn2C1CC1` [Example I-77, 1-(7-(4-amino-7-cyclopropyl-7H-pyrrolo[2,3-d]pyrimidin-5-yl)benzo[c][1,2,5]oxadiazol-4-yl)-3-(5-(1-(trifluoromethyl)-cyclopropyl)isoxazol-3-yl)urea], the results for the IC50 (with IL-1β release; in experiment [1]) were less than 100 nM and less than 200 nM, respectively.

As for `CN1CCC(Oc2ccc(NC(=O)Nc3ccc(-c4cn(C5CC5)c5ncnc(N)c45)c4nonc34)cc2C(F)(F)F)CC1` [Example I-79, 1-(7-(4-amino-7-cyclopropyl-7H-pyrrolo[2,3-d]pyrimidin-5-yl)benzo[c][1,2,5]oxadiazol-4-yl)-3-(4-((1-methylpiperidin-4-yl)oxy)-3-(trifluoromethyl)-phenyl)urea], the IC50 in the experiment on IL-1β release is less than 100 nM; in experiment [1] it was less than 200 nM.

As to `CN1CCN(Cc2ccc(NC(=O)Nc3ccc(-c4nn(C5CC5)c5ncnc(N)c45)n4ccnc34)cc2C(F)(F)F)CC1` [Example I-98, 1-(5-(4-amino-1-cyclopropyl-1H-pyrazolo[3,4-d]pyrimidin-3-yl)imidazo[1,2-a]pyridin-8-yl)-3-(4-((4-methylpiperazin-1-yl)methyl)-3-(trifluorometh-yl)phenyl)urea], the IC50 was less than 100 nM in the experiment with IL-1β release and less than 200 nM in experiment [1].

One may read the IC50 as the midpoint of a concentration-inhibition curve.
